Drawing on publication PMC10204090, “TFBMiner: A User-Friendly Command Line Tool for the Rapid Mining of Transcription Factor-Based Biosensors” (ACS Synthetic Biology, 2023), this text covers EC50 for 2 molecules.

In the assay the target is T1, P. hospita MdlR (C2L64_43720) (Paraburkholderia hospita, UniProt A0AAN1MPU5).
T1 construct: gene WQE_50835; full-length LysR-type regulator, gene codon-optimised for E. coli, expressed from Ptrc in E. coli NEB 5-alpha; rfp reporter under P. hospita PmdlC (PC2L64_43715)
T1 sequence (A0AAN1MPU5 1-297): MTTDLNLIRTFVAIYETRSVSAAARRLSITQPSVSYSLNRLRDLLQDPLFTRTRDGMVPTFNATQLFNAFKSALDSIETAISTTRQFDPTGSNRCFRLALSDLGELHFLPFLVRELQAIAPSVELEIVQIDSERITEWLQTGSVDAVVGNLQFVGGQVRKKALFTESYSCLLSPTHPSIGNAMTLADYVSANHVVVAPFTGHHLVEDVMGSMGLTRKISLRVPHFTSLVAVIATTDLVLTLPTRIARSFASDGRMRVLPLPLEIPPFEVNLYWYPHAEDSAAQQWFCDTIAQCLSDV
In words: E. coli whole-cell RFP reporter assay, Hill fit. It is filed as cell-based. Particulars: read-out: Km ^a. From the text:
E. coli whole-cell RFP reporter assay, Hill fit on P. hospita MdlR (C2L64_43720)
Background: Reporter assays use an easily measured gene product as a stand-in for the process of interest.

On to `O=C(O)[C@@H](O)c1ccccc1` [compound 1, S-mandelate], for which the EC50 amounted to 167 µM.

With `O=C(O)C(=O)c1ccccc1` [compound 4, phenylglyoxylate], the EC50 stood at 93 µM.
